{"source": "patent US10106853B2", "about": "“CUL4B as predictive biomarker for cancer treatment” (CORNELL UNIVERSITY, priority 2012, dated 2018)", "key": {"BT474 xenograft tumors": {"tested_on": "BT474 xenograft tumors", "assay_type": "in vivo, athymic Nu/J nude mice", "conditions": "for Xenograft tumor growth under topotecan treatment: topotecan i.p. 5 mg/g every fourth day", "experimental": "(§1) FIG. 5. CUL4B inactivation sensitized BT474 xenograft tumors to topotecan. Stable TGL-BT474 cells (BT474 cells stably expressing GFP-luciferase reporter) were established by retroviral transduction and FACS sorting. The resulting TGL-BT474 cells were infected with recombinant lentiviruses expressing non-targeting shCtrl, shCUL4A or shCUL4B, followed by selection of infected cells with 4 μg/ml puromycine for one week. A) Knockdown of endogenous CUL4A and 4B were verified by immunoblotting. B, C) 1×10^7 of control, CUL4A^k/d, or CUL4B^k/d TGL-BT474 cells were injected subcutaneously in the right flank of each athymic Nu/J nude mice, treated (i.p.) with toptoecan at a dose of 5 mg/g on every 4th day, and tumor burden was measure by bioluminescent imaging. Statistical significance in tumor burden between control and CUL4A^k/d or CUL4B^k/d xenograph are assessed by a two-tailed unpaired student t-test (***: p<0.001). D) Growth rate of control, CUL4A^k/d and CUL4B^k/d BT474 cells in vitro. The same number of control, CUL4A^k/d and CUL4B^k/d BT474 cells were seeded to 96-well plates and cell proliferation was measured using the XTT Cell Proliferation Assay Kit. The data represent the mean value of fold change of cells. Bars indicate the S.E. of six independent experiments. Statistical significance in cellular rate between control cells and CUL4A^k/d or CUL4B^k/d cells are assessed by student's t-test. E-F) Growth rate of control, CUL4A^k/d and CUL4B^k/d TGL-BT474 xenograft in vivo. 1×10^7 of control, CUL4A^k/d or CUL4B^k/d TGL-BT474 cells were injected subcutaneously in the right flank of each mouse of athymic Nu/J nude mice, and tumor burden was measured by bioluminescent imaging (E). On the 22nd day, tumors were collected, and the weight of exercised tumors was measured after mice were sacrificed (F).\nThe effect of CUL4B knockdown on an organism's response to CPT treatment was tested in vivo by examining the sensitivity of BT474-CUL4B^k/d, BT474-CUL4A^k/d and control BT474 xenograft tumors to topotecan treatment. Topotecan, (S)-10-[(dimethylamino)methyl]-4-ethyl-4,9-dihydroxy-1H-pyrano[3′,4′:6,7]indolizino[1,2-b]quinoline-3,14(4H,12H)-dione monohydrochloride, is an FDA-approved Top1-directed chemotherapy for the treatment of ovarian, cervical and small cell lung cancer, under the trade name Hycamtin™. Nude mice bearing BT474 xenografts on dorsal skin were treated with topotecan every four (4) days for a period of 44 days. Prior to topotecan administration, the size of the xenograft tumors were identical (FIG. 5). Topotecan was then administered via intraperitoneal injection, and tumor mass was monitors by bioluminescent imaging in four day intervals. […] To rule out the possibility that the growth rate of xenografts were altered during the CUL4B inactivation process (treatment with shRNA) the tumor mass of the three xenograft groups were measured in the absence of topotecan treatment and the weight of the exercised xenograft tumors were analyzed.\nSix week old Female athymic Nu/J nude mice were purchased from Jackson Labs. Mice were housed in laminar air-flow cabinets under specific pathogen-free conditions. Nude mice were inoculated with 0.36 mg 60-day-release 17-b-estradiol pellets (Innovative Research) 24 to 48 hours before implantation of BT-474 cells. 1×10^7 BT-474 cells in 50 ul DMEM medium and 300 ul diluted BD Matrigel™ Basement Membrane Matrix (BD Bioscience, Matrix: PBS is 2:1) were injected subcutaneously in the right flank of each mouse. Tumors were detected once every four days by an IVIS Imaging System (Caliper Life Sciences). When tumors were available to be detected, mice were initially treated with topotecan. Topotecan was administered intraperitoneally on every fourth day from the initiation of therapy at doses of 5 mg/g.\nThe IVIS Imaging System (Caliper life sciences) was used for bioluminescent image acquisition and analysis. […]"}, "BT474 cells": {"tested_on": "BT474 cells", "experiment": "XTT Cell Proliferation Assay, growth rate of BT474 cells in vitro", "assay_type": "cell-based, Human", "conditions": "knockdown cells vs control, no drug", "experimental": "as §1, with “B, C) 1×10^7 of control, CUL4A^k/d, or CUL4B^k/d TGL-BT474 cells were injected subcutaneously in the right flank of each athymic Nu/J nude mice, treated (i.p.) with toptoecan at a dose of 5 mg/g on every 4th day, and tumor burden was measure by bioluminescent imaging.” left out, “D) Growth rate of control, CUL4A^k/d and CUL4B^k/d BT474 cells in vitro.” left out, “The data represent the mean value of fold change of cells. Bars indicate the S.E. of six independent experiments.” left out, “E-F) Growth rate of control, CUL4A^k/d and CUL4B^k/d TGL-BT474 xenograft in vivo.” left out"}, "Top1": {"target": "T1, Top1 (Homo sapiens, UniProt P11387)", "T1 construct": "CPT-induced TOP1 degradation in breast cancer cell lines; host or cells: human breast cancer cell lines BT474, BT20, MCF-7, MDA-MB-231, T47D, Sk-Br-3 (MCF-10A as control)", "T1 sequence (P11387 1-765)": "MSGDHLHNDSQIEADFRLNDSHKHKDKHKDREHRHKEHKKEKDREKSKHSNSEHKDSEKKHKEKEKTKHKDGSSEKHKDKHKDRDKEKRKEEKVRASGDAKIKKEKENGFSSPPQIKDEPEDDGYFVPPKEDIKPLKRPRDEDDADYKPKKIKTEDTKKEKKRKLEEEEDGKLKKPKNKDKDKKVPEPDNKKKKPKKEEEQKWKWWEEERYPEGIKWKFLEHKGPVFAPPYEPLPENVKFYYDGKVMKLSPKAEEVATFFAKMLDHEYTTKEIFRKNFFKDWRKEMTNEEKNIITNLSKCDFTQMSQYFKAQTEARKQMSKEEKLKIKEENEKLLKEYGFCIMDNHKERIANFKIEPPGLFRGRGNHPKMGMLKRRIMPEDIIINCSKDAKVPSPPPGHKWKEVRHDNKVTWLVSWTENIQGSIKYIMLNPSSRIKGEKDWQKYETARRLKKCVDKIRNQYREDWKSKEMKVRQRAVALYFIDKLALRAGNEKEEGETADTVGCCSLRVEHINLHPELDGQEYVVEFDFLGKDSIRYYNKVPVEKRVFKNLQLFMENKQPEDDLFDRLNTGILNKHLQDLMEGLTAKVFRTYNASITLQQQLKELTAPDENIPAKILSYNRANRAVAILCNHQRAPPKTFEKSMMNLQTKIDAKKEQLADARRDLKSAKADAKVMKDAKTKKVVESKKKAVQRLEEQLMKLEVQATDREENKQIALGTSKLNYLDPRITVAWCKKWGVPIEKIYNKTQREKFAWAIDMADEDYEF", "experiment": "CPT-induced TOP1 down regulation assay (immunoblotting)", "assay_type": "cell-based", "conditions": "BT474 cells, lentiviral shRNA; CPT 50 μM, 1 to 1.5 hr", "experimental": "FIG. 1. CPT-induced TOP1 degradation in breast cancer cell lines. A) Expression of endogenous CUL4A and 4B in breast cancer cell lines. Total cell lysates were prepared from the indicated breast cancer cell lines and subjected to SDS PAGE and immunoblotting with antibodies against CUL4A, 4B and α-tubulin. The non-cancerous MCF-10A cell line was used as a control for comparison. B) CPT-induced TOP1 degradation in breast cancer cell lines. Cells were treated with 12.5 μM CPT or 1% DMSO for 4 hours, replenished with CPT-free fresh medium and incubated at 37° C. for 30 minutes to reverse the formation of TOP1 cleavable complex. Cells were then lysed and immunoblotted with the TOP1 and α-tubulin antibodies.\nFIG. 2. CUL4B interacted with Top1 and induced Top1 degradation in the presence of CPT. A) Knockdown of CUL4B impaired CPT-induced Top1 degradation. BT474 cells were infected with lentiviral shCUL4B, shCUL4A or control non-targeting shRNA, and selected for stable CUL4B^k/d or CUL4A^k/d cells upon treatment with puromycin. Following treatment with CPT (50 μM) for 1 hour, cells were replenished with CPT-free fresh medium and incubated at 37° C. for 30 minutes. Top1 degradation was assessed by immunoblotting with an anti-Top1 antibody. Levels of α-tubulin were measured as a loading control. B) Association of CUL4B with Top1 following CPT treatment. BT474 cells were treated with proteosome inhibitor MG132 (15 μM) for 3 hours, and were subjected to crosslinking with 0.2 mM Dithiobis[succinimidyl propionate](DSP) for the last 30 min at room temperature. Cell lysates were prepared, and immunoprecipitated with the anti-Top1 or anti-CUL4B antibodies, and then immunoblotted using antibodies against CUL4B or Top1, respectively. IgG immunoprecipitates served as the negative control. C) Knockdown of CUL4B using a second shCUL4B-2 impaired CPT-induced Top1 degradation. BT474 cells were infected with lentiviral shCUL4B-2, shCUL4A-2 or control non-targeting shRNA and selected for stable CUL4B^k/d or CUL4A^k/d cells upon treatment with puromycin. Following treatment with CPT (50 μM) for 1.5 hr, cells were replenished with CPT-free fresh medium and incubated at 37° C. for 30 min. Top1 degradation was assessed by immunoblotting with the anti-Top1 antibody. Levels of α-tubulin were measured as a loading control. D) CUL4B inactivation sensitized BT474 cells to cytotoxic killing by camptothecin. BT474, BT474-CUL4A^k/d or BT474-CUL4B^k/d cells were synchronized with 1 μM nocodazole for 13 hours released in fresh medium, treated with the indicated concentrations of CPT for three days, and subjected to the XTT assay to measure the cytotoxic responses to CPT. […] The bars indicate the S.E. of six independent experiments. Statistical significance in cellular response to CPT between control BT474 cells and CUL4A^k/d or CUL4B^k/d cells were assessed by a two-tailed unpaired student t-test (***: p<0.001). The same results were obtained with a second lentiviral shRNA for CUL4A and CUL4B, as well as in T47D breast cancer cells. E, F) Knockdown of CUL4B increased the sensitivity of T47D cells to camptothecin. […] Statistical significance in cellular response to camptothecin between control cells and CUL4A^k/d or CUL4B^k/d BT474 cells are assessed by student's t-test.\nCPT-induced Top1 degradation was monitored by immunoblotting of the alkaline lysates. […]"}}, "note": "Where two headings read alike, the source gives them in different places.", "data": [{"molecule": "CC[C@@]1(O)C(=O)OCc2c1cc1n(c2=O)Cc2cc3c(CN(C)C)c(O)ccc3nc2-1.Cl", "note": "[topotecan, (S)-10-[(dimethylamino)methyl]-4-ethyl-4,9-dihydroxy-1H-pyrano[3′,4′:6,7]indolizino[1,2-b]quinoline-3,14(4H,12H)-dione monohydrochloride]", "values": [{"measurement": "Xenograft tumor growth under topotecan treatment", "setting": "BT474 xenograft tumors; BT474-CUL4A k/d xenografts, 44 days", "result": "continue to grow"}, {"measurement": "Xenograft tumor growth under topotecan treatment", "setting": "BT474 xenograft tumors; BT474-CUL4B k/d xenografts vs control and CUL4A k/d groups (p<0.001)", "result": "largely attenuated"}, {"measurement": "Xenograft tumor growth under topotecan treatment", "setting": "BT474 xenograft tumors; control BT474 xenografts, 44 days", "result": "continue to grow"}, {"measurement": "Size of control and shCUL4A xenografts relative to shCUL4B xenografts", "setting": "BT474 xenograft tumors; final day of topotecan treatment", "result": 5, "unit": "fold"}, {"measurement": "Detection of xenografts by bioluminescent imaging", "setting": "BT474 xenograft tumors; several shCUL4B xenografts, final day of topotecan treatment", "result": "not detectable"}]}, {"molecule": "shCUL4A: lentiviral shRNA CUL4A sequence purchased from Sigma Aldrich (CCGGGCAGAACTGATCGCAAAGCATCTCGAGATGCTTTGCGATCAGTTCTGCTTTTT)", "values": [{"measurement": "Growth rate of xenografts vs control", "setting": "BT474 xenograft tumors; without topotecan administration, tumor burden and excised tumor weight", "result": "no significant difference"}, {"measurement": "Growth rate of cultured BT474 cells in vitro", "setting": "BT474 cells", "result": "reduced the growth rate slightly"}]}, {"molecule": "shCUL4B-2: second lentiviral shRNA CUL4B sequence purchased from Sigma Aldrich (CCGGGCAATTCTTCAGAAAGGTTTACTCGAGTAAACCTTTCTGAAGAATTGCTTTTT)", "values": [{"measurement": "Effect of shRNA knockdown on CPT-induced Top1 degradation", "setting": "Top1", "result": "impaired"}]}]}
